# In patent US20220298143A1, “Pyrazole Derivatives for FGFR Inhibitor and Preparation Method Thereof” (Etern Biopharma (Shanghai) Co., Ltd., priority 2019, published 2022):
# pIC50: −log10 of the molar value. Where two headings read alike, the source gives them in different places.
# Key:
# Hep3B cells = experiment: Human liver cancer cell Hep3B survival test (CellTiter-Glo); format: cell-based; settings: 72 hours compound treatment
# Experimental: Human Liver Cancer Cell Hep3B Survival Test
# The human liver cancer Hep3B cell line was from ATCC. The cells were cultured in DMEM liquid medium, and fetal bovine serum (10% FBS) and penicillin-streptomycin (100,000 U/L) were added. The cells were kept at 37° C., 95% humidity and 5% carbon dioxide in the culture medium. During the experiment, Hep3B cells were seeded in a 96-well plate at a density of 3000 cells per well. The volume of the cell suspension was 100 μL per well, and the cells were cultured overnight to attach the cells. The next day, each compound was diluted with DMSO in a three-fold gradient, and 1 μL of the solution of the compound in DMSO was added to the cell culture medium. At the same time, 1 μL of DMSO was used as a control. Three parallel sub-wells were set for each concentration of each compound. Then the cells were placed in a 37° C. incubator. After 72 hours of continuous compound treatment, 50 μL CellTiter-Glo (Promega, Madison Wis.) was added to the cell culture medium. The relative luminescence unit (RLU) of each well was determined and the cell survival rate and compound activity (IC50) were calculated.
# [1] = Compound pharmacokinetic experiment, single intragastric administration; format: in vivo; settings: mouse, plasma, male mice, oral dosage 15 mg/Kg; for Cmax: read-out: Peak plasma concentration Cmax; for AUC: read-out: Plasma exposure AUC
# Experimental: Compound Pharmacokinetic Experiment
# The pharmacokinetics of the compounds of the present disclosure was determined. This application used the following methods to determine the pharmacokinetic parameters of the compounds.
# For the healthy male adult mice used in the study, each group of animals was given a single intragastric administration of 5-100 mg/Kg. Fasting was from 10 hours before administration to 4 hours after administration. Blood was collected at different time points after administration, and the plasma content of the compound was determined (LC-MS/MS). The plasma concentration-time relationship was analyzed with professional software (winnonlin) to calculate the pharmacokinetic parameters of the compound.
# FGFR2 = FGFR2 (Homo sapiens, UniProt P21802); experiment: Enzymatic activity test of FGFR inhibitor, Caliper model; format: biochemical; settings: kinase pre-incubation 10 minutes
# FGFR2, sequence (P21802 22-821): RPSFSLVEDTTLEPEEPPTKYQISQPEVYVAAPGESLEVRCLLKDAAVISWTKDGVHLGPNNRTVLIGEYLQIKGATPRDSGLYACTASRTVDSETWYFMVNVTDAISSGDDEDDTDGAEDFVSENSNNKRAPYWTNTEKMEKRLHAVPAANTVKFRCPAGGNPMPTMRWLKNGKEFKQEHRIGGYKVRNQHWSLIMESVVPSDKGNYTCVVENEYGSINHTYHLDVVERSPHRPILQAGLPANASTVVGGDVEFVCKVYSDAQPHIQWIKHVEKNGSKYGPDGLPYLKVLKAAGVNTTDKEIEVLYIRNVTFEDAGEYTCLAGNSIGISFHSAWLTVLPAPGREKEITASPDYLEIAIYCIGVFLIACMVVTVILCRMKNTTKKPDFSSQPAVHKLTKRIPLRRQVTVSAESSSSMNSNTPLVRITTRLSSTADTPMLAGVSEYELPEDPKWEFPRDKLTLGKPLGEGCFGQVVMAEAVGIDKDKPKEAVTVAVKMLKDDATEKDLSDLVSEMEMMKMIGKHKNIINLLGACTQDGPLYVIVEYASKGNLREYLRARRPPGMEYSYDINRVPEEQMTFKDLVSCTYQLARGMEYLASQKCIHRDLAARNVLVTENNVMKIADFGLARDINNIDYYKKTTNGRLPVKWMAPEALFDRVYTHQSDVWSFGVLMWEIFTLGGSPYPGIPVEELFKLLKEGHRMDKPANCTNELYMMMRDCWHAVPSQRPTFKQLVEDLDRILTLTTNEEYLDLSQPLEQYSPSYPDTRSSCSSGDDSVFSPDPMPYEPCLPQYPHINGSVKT
# Experimental: (§1) Enzymatic Activity Test of FGFR Inhibitor-Caliper Model
# (§2) The specific operation steps were as follows:
# (§3) The compound was first serially diluted in 5% DMSO solution, and 5 μL of the compound solution was added to a 384-well plate. The maximum final concentration of the compound is 1 μM, being diluted three times with 10 concentrations.
# (§4) 10 μL of kinase solution was added to the 384-well plate and incubated at room temperature for 10 minutes;
# (§5) 10 μL of P22 peptide and ATP solution were added to the 384-well plate, and 25 μL of reaction stop buffer was added after a specific time at 28° C.;
# (§6) The data was collected in Caliper read and the inhibition rate was calculated according to inhibition rate=(max−conversion)/(max−min)*100, where max is DMSO control, conversion is the reading of the compound treated group, and min is the maximum inhibition control. IC50 value of the compound was calculated with XLfit excel add-in version 5.4.0.8 software.
# FGFR1 = biological target: T1, FGFR1 (Homo sapiens, UniProt P11362); experiment: as above; format: biochemical
# T1 construct: purchased Cama (sic; Carna) 08-133
# T1 sequence (P11362 22-822): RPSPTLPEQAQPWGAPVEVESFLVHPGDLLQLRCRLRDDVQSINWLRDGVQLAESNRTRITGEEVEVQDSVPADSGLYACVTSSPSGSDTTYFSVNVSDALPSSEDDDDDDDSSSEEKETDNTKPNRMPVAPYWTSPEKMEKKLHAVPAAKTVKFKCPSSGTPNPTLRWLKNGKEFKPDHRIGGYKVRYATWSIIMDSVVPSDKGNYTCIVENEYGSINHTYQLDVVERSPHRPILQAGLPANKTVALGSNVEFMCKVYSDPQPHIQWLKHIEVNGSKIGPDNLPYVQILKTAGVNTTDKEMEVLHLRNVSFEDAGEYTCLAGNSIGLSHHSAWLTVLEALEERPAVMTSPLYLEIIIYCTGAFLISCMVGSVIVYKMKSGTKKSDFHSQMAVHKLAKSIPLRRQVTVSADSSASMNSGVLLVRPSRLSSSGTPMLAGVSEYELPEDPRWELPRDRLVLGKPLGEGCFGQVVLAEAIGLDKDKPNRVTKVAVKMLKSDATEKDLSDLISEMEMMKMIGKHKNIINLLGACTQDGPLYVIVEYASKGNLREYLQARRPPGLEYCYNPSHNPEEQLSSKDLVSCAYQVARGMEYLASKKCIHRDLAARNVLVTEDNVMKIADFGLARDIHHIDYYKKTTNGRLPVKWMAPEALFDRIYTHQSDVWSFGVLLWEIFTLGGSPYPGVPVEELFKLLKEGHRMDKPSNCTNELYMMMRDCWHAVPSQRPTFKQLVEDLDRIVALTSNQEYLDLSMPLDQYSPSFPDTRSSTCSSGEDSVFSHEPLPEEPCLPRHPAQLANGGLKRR
# FGFR3 = FGFR3 (Homo sapiens, UniProt P22607); experiment: as above; format: biochemical; settings: kinase pre-incubation 10 minutes
# FGFR3, sequence (P22607 23-806): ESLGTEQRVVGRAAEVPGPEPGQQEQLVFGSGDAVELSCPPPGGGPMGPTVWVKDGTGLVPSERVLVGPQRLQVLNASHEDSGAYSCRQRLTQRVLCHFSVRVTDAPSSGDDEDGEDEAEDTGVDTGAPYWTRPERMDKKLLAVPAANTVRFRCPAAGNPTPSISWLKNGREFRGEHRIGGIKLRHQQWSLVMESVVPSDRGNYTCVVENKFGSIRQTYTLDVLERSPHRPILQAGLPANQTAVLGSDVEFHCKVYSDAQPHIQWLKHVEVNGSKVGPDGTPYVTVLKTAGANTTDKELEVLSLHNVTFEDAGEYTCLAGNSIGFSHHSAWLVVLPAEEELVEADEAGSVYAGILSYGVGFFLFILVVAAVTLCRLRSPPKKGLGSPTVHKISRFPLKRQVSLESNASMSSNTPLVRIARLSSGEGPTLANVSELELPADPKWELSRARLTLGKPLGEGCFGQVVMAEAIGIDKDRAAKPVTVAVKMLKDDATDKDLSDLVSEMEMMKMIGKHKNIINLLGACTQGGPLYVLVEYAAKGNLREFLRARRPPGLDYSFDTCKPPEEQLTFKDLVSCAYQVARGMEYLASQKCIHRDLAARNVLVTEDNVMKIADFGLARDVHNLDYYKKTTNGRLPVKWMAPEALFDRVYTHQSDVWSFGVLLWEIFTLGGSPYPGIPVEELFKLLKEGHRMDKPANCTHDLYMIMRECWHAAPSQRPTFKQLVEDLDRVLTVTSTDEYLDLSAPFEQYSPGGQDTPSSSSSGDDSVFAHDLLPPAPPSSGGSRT
# FGFR4 = biological target: T2, FGFR4 (Homo sapiens, UniProt P22455); experiment: as above; format: biochemical
# T2 construct: purchased Invitrogen PR4380A
# T2 sequence (P22455 22-802): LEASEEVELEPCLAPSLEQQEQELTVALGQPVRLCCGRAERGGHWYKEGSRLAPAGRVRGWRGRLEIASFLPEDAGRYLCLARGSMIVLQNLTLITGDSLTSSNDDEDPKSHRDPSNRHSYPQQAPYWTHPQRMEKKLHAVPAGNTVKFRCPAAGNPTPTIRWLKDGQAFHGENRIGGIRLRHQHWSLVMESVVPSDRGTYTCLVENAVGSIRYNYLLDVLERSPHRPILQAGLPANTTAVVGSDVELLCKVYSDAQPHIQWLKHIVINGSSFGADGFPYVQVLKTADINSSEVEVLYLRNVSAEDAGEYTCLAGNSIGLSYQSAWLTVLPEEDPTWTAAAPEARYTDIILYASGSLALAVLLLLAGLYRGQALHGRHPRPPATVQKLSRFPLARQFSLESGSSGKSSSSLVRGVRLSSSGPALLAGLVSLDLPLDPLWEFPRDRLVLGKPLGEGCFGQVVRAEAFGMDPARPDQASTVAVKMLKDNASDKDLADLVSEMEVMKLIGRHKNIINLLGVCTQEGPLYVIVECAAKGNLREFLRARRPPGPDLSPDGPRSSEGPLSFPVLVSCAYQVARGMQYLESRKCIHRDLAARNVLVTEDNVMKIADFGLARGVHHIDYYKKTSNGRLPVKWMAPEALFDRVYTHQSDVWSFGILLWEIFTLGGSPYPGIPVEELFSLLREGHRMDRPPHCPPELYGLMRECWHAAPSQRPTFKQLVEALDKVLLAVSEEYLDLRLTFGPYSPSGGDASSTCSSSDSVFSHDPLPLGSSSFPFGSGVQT
# Experimental: as §1, §2, §3, §4, §5, §6
# [2] = Caliper, kinase pre-incubation 10 minutes, read-out: FGFR1
# [3] = Caliper, kinase pre-incubation 10 minutes, read-out: FGFR4
SMILES,pIC50 (Hep3B cells),Cmax [1] [nM],AUC [1] [µM·h],pIC50 (FGFR2),pIC50 (FGFR1; [2]),pIC50 (FGFR3),pIC50 (FGFR4; [3]),pIC50 (FGFR1),pIC50 (FGFR4)
"COc1cc(CCc2cc(NC(=O)c3ccc(N4C[C@@H](C)N[C@@H](C)C4)cc3)n[nH]2)cc(OC)c1 [AZD4547, reference compound]",6.58,–,–,–,–,–,–,–,–
"C=CC(=O)Nc1cc(N2CCN(CC(F)(F)F)CC2)ccc1C(=O)Nc1cc(CCc2cc(OC)cc(OC)c2)n[nH]1 [Compound 2, 2-acrylamide-N-(3-(3,5-dimethoxyphenethyl)-1H-pyrazol-5-yl)-4-(4-(2,2,2-trifluoroethyl)piperazin-1-yl) benzamide]",9.10,2580,7.52,8.43,8.48,8.55,8.48,–,–
"C=CC(=O)Nc1cc(N2CCN(CC(F)F)CC2)ccc1C(=O)Nc1cc(CCc2cc(OC)cc(OC)c2)n[nH]1 [Compound 3, 2-acrylamide-4-(4-(2,2-difluoroethyl)piperazin-1-yl)-N-(3-(3,5-dimethoxyphenethyl)-1H-pyrazol-5-yl)benzamide]",8.52,–,–,8.28,–,8.34,–,8.44,8.24
"C=CC(=O)Nc1cc(OCC(F)(F)F)ccc1C(=O)Nc1cc(CCc2cc(OC)cc(OC)c2)n[nH]1 [Compound 5, 2-acrylamido-N-(3-(3,5-dimethoxyphenethyl)-1H-pyrazol-5-yl)-4-(2,2,2-trifluoroethoxy)benzamide]",8.05,–,–,8.57,8.57,8.62,8.60,–,–
"C=CC(=O)Nc1cc(N2CC(F)(F)C2)ccc1C(=O)Nc1cc(CCc2cc(OC)cc(OC)c2)n[nH]1 [Compound 6, 2-acrylamido-4-(3,3-difluoroazetidin-1-yl)-N-(3-(3,5-dimethoxyphenethyl)-1H-pyrazole-5-yl)benzamide]",8.52,–,–,8.64,8.62,8.77,8.70,–,–
"C=CC(=O)Nc1cc(N2CCC(F)(F)CC2)ccc1C(=O)Nc1cc(CCc2cc(OC)cc(OC)c2)n[nH]1 [Compound 7, 2-acrylamido-4-(4,4-difluoropiperidin-1-yl)-N-(3-(3,5-dimethoxyphenethyl)-1H-pyrazol-5-yl)benzamide]",8.22,–,–,8.47,8.68,8.64,8.49,–,–
"C=CC(=O)Nc1cc(N2CCC(F)(F)C2)ccc1C(=O)Nc1cc(CCc2cc(OC)cc(OC)c2)n[nH]1 [Compound 8, 2-acrylamido-4-(3,3-difluoropyrrolidin-1-yl)-N-(3-(3,5-dimethoxyphenethyl)-1H-pyrazol-5-yl)benzamide]",8.10,–,–,8.55,8.57,8.64,8.57,–,–
"C=CC(=O)Nc1cc(OCCC(F)(F)F)ccc1C(=O)Nc1cc(CCc2cc(OC)cc(OC)c2)n[nH]1 [Compound 9, 2-acrylamido-N-(3-(3,5-dimethoxyphenethyl)-1H-pyrazol-5-yl)-4-(3,3,3-trifluoropropoxy)benzamide]",8.70,–,–,8.36,8.51,8.36,8.44,–,–
"C=CC(=O)Nc1cc(N2CCN(CCC(F)(F)F)CC2)c(OC)cc1C(=O)Nc1cc(CCc2cc(OC)cc(OC)c2)n[nH]1 [Compound 10, 2-acrylamido-N-(3-(3,5-dimethoxyphenethyl)-1H-pyrazol-5-yl)-5-methoxy-4-(4-(3,3,3-trifluoropropyl)piperazin-1-yl)benzamide]",8.52,1250,2.41,8.21,8.24,8.13,8.36,–,–
"C=CC(=O)Nc1cc(N2CCN(CCC(F)(F)F)C(C)C2)ccc1C(=O)Nc1cc(CCc2cc(OC)cc(OC)c2)n[nH]1 (stereo not shown) [Compound 12, 2-acrylamido-N-(3-(3,5-dimethoxyphenethyl)-1H-pyrazol-5-yl)-4-(3-methyl-4-(3,3,3-trifluoropropyl)piperazin-1-yl)benzamide]",9.30,663,1.42,8.39,8.57,8.52,8.41,–,–
"C=CC(=O)Nc1cc(N(C)CCC(F)(F)F)ccc1C(=O)Nc1cc(CCc2cc(OC)cc(OC)c2)n[nH]1 [Compound 13, 2-acrylamido-N-(3-(3,5-dimethoxyphenethyl)-1H-pyrazol-5-yl)-4-(methyl(3,3,3-trifluoropropyl)amino)benzamide]",7.92,–,–,8.31,8.47,8.51,8.42,–,–
"C=CC(=O)Nc1cc(N2CCN(CC(F)(F)C(F)(F)F)CC2)ccc1C(=O)Nc1cc(CCc2cc(OC)cc(OC)c2)n[nH]1 [Compound 14, 2-acrylamido-N-(3-(3,5-dimethoxyphenethyl)-1H-pyrazol-5-yl)-4-(4-(2,2,3,3,3-pentafluoropropyl)piperazin-1-yl)benzamide]",8.15,344,1.15,8.23,8.21,8.24,8.23,–,–
"C=CC(=O)Nc1cc(N2CCN(CCC(F)(F)F)CC2)cnc1C(=O)Nc1cc(CCc2cc(OC)cc(OC)c2)n[nH]1 [Compound 15, 3-acrylamido-N-(3-(3,5-dimethoxyphenethyl)-1H-pyrazol-5-yl)-5-(4-(3,3,3-trifluoropropyl)piperazin-1-yl)pyridinecarboxamide]",7.92,–,–,8.35,8.32,8.41,8.36,–,–
"C=CC(=O)Nc1cc(N2CCN(CCC(F)(F)F)CC2)cc(F)c1C(=O)Nc1cc(CCc2cc(OC)cc(OC)c2)n[nH]1 [Compound 16, 2-acrylamido-N-(3-(3,5-dimethoxyphenethyl)-1H-pyrazol-5-yl)-6-fluoro-4-(4-(3,3,3-trifluoropropyl)piperazin-1-yl)benzamide]",9.52,–,–,–,–,–,–,–,–
"C=CC(=O)Nc1ccccc1C(=O)Nc1cc(CCc2cc(OC)cc(OC)c2)[nH]n1 [Control a, 2-acrylamido-N-(3-(3,5-dimethoxyphenethyl)-1H-pyrazol-5-yl)benzamide, reference compound]",8.30,377,0.404,8.66,8.35,8.77,–,–,–
